“Also recorded” adds a separate entry of the source.
Experiments:
PC-3M (Prostate) = test: Antiproliferative assay, PC-3M; assay type: cell-based, human; settings: 3 d exposure, mean ± SD, read-out: IC50 for growth inhibition
Protocol: A human androgen-independent prostate cancer cell line is used to establish subcutaneous and orthotopic models in mice. The human metastatic prostate carcinoma PC-3M is obtained from Dr. I. J. Fidler (MD Anderson Cancer Center, Houston, Tex., USA) and is cultured in Ham's F12K media supplemented with 7% v/v FBS. The PC-3M cell line is the result of isolation from liver metastasis produced in nude mice subsequent to intrasplenic injection of PC-3 cells [ATCC CRL 1435; American Type Culture Collection (Rockville, Md., USA)], and they can grow in Eagle's MEM supplemented with 10% fetal bovine serum, sodium pyruvate, non-essential amino acids, L-glutamine, a two-fold vitamin solution (Gibco Laboratories, Long Island, N.Y.) and penicillin-streptomycin (Flow Laboratories, Rockville, Md.). The PC-3M cell line is hormone-insensitive (that is, it grows in the absence of androgens). […] No normal Y chromosomes can be detected by Q-band analysis.
Antiproliferative assays are performed as previously described (Int. J. Cancer 43, 851-6 (1989)). […] After washing, the dye is eluted with 3% v/v HCl and the optical density measured at 665 nm with a SpectraMax 340 (Bucherer, Basel, Switzerland). IC50 values are determined by a computerized system (SoftPro, Bucherer, Basel, Switzerland) using the formula (OD test−OD start)/(OD control−OD start)×100. […]

[1] = tested on: human PC-3M prostate carcinoma cells; test: Antitumor effect against orthotopically injected PC-3M cells; assay type: in vivo, male BALB/c nude mice; settings: for Tumor Response (T/C %) Lymph Nodes / Tumor Response (T/C %) Prostate: day 42
Protocol: A human androgen-independent prostate cancer cell line is used to establish subcutaneous and orthotopic models in mice. The human metastatic prostate carcinoma PC-3M is obtained from Dr. I. J. Fidler (MD Anderson Cancer Center, Houston, Tex., USA) and is cultured in Ham's F12K media supplemented with 7% v/v FBS. The PC-3M cell line is the result of isolation from liver metastasis produced in nude mice subsequent to intrasplenic injection of PC-3 cells [ATCC CRL 1435; American Type Culture Collection (Rockville, Md., USA)], and they can grow in Eagle's MEM supplemented with 10% fetal bovine serum, sodium pyruvate, non-essential amino acids, L-glutamine, a two-fold vitamin solution (Gibco Laboratories, Long Island, N.Y.) and penicillin-streptomycin (Flow Laboratories, Rockville, Md.). The PC-3M cell line is hormone-insensitive (that is, it grows in the absence of androgens). The PC-3 cell line is androgen receptor negative, as is presumably the derived PC-3M cell line. […] The cells are near-triploid with a modal number of 62 chromosomes. No normal Y chromosomes can be detected by Q-band analysis.
Human prostate carcinoma PC-3M cells (1×10^6 cells per 20 μl phosphate buffered saline) are injected into the left […] of the prostate of each animal (n=6-9/group) according the method previously described (see Stephenson et al., J. Natl. Cancer Inst. 84, 951-7 (1992)). Treatment is started on day 14 after cell injection. At this time point a mean tumor weight of ˜20 mg is established. Epothilone B is administered either once or once weekly. Mice are sacrificed 42 days post tumor inoculation, and the prostates are carefully removed, dissected free of adhering tissue and weighed. […] Mesenteric lymph nodes are examined for the presence of metastases, dissected free of adhering tissue and weighed.
Tumor weight and body weights are monitored once or twice weekly. All treatments are administered intravenously (i.v.) and are initiated 14 days post cell injection. Treatment with epothilone B varies the dose and frequency of administration. Antitumor activity is expressed as T/C % (mean tumor weight of treated animals divided by the mean tumor weight of control animals multiplied by 100).

[2] = Two-week intravenous toxicity study in mice; assay type: in vivo, normal female BALB/c mice
Protocol: In order to assess the sub-chronic intravenous toxicity of epothilone B, a non-GLP two-week i.v. toxicity study in non-tumor bearing, normal female BALB/c mice is conducted, involving analysis of mortality, clinical signs, body weight, food consumption, hematology, clinical biochemistry, urinalysis, and organ weights as well as macro and microscopic examinations. The study is based on two different dosing regiments of epothilone B of 3 mg/kg and 10 mg/kg, respectively, administered on days 1 and 8 (8 animals per group). Half of the animals are killed on day 15 (main group) and necropsy is performed. For the other half (recovery group) a recovery period of 5 weeks is allowed after administration of the second dose before sacrifice and subsequent necropsy on day 43.

A549 (Lung) = test: Antiproliferative assay, A549; assay type: cell-based, human; settings: A549, 5 d exposure, mean ± SD, n = 3 (epothilone B n = 2); read-out: IC50 for growth inhibition
Protocol: Antiproliferative assays are performed as previously described (Int. J. Cancer 43, 851-6 (1989)). Briefly, cells are seeded at 1.5×10^3 cells/well into 96-well microtiter plates and incubated overnight. Compounds are added in serial dilutions on day 1. The plates are then incubated for an additional 2 to 5 days, allowing for at least one cell doubling (cell line dependent), after which the cells are fixed with 3.3% v/v glutaraldehyde, washed with water and stained with 0.05% w/v methylene blue. After washing, the dye is eluted with 3% v/v HCl and the optical density measured at 665 nm with a SpectraMax 340 (Bucherer, Basel, Switzerland). IC50 values are determined by a computerized system (SoftPro, Bucherer, Basel, Switzerland) using the formula (OD test−OD start)/(OD control−OD start)×100. IC50 is defined as the drug concentration which leads to 50% of cells per well compared to control cultures (100%) at the end of incubation period.

[3] = 3 mg/kg i.v. on days 1 and 8, day 15
[4] = 10 mg/kg i.v. on days 1 and 8, day 15
[5] = both dose levels (3 and 10 mg/kg), day 15

For `C/C(=C\c1csc(C)n1)[C@@H]1C[C@@H]2O[C@]2(C)CCC[C@H](C)[C@H](O)[C@@H](C)C(=O)C(C)(C)[C@@H](O)CC(=O)O1` [epothilone B], the IC50 (PC-3M (Prostate)) was 3.82 ± 0.47 nM, the “% Body Weight Change” value ([1]; 4 mg/kg, i.v. once per week) was −1 ± 5% and the “Survival (No. alive/total)” value ([1]; 4 mg/kg, i.v. once per week) was 8/9. For the same molecule, the “Δ Body Weight” value ([1]; 4 mg/kg, i.v. once per week) was -1.2 ± 2.3 g, the “Tumor Response (T/C %) Lymph Nodes” value ([1]; 4 mg/kg, i.v. once per week) was 4% and the “Tumor Response (T/C %) Prostate” value ([1]; 4 mg/kg, i.v. once per week) was 2%. For the same molecule, the “% Body Weight Change” value ([1]; 5 mg/kg, i.v. once per week) was −25 ± 5%, the “Survival (No. alive/total)” value ([1]; 5 mg/kg, i.v. once per week) was 7/9 and the “Δ Body Weight” value ([1]; 5 mg/kg, i.v. once per week) was -6.8 ± 1.5 g. For the same molecule, the “Tumor Response (T/C %) Lymph Nodes” value ([1]; 5 mg/kg, i.v. once per week) was 4%, the “Tumor Response (T/C %) Prostate” value ([1]; 5 mg/kg, i.v. once per week) was 1% and the “% Body Weight Change” value ([1]; 6 mg/kg, i.v. once) was −6 ± 12%. The “Survival (No. alive/total)” value ([1]; 6 mg/kg, i.v. once) was 9/9, the “Δ Body Weight” value ([1]; 6 mg/kg, i.v. once) was -1.4 ± 4.1 g and the “Tumor Response (T/C %) Lymph Nodes” value ([1]; 6 mg/kg, i.v. once) was 4%. The “Tumor Response (T/C %) Prostate” value ([1]; 6 mg/kg, i.v. once) was 5%, the “% Body Weight Change” value ([1]; 8 mg/kg, i.v. once) was −13 ± 15% and the “Survival (No. alive/total)” value ([1]; 8 mg/kg, i.v. once) was 7/9. The “Δ Body Weight” value ([1]; 8 mg/kg, i.v. once) was -5.2 ± 4.3 g, the “Tumor Response (T/C %) Lymph Nodes” value ([1]; 8 mg/kg, i.v. once) was 4% and the “Tumor Response (T/C %) Prostate” value ([1]; 8 mg/kg, i.v. once) was 1%. For the same molecule, the “animals with detectable metastases” value ([1]; in each of the epothilone B treatment groups, all animals in vehicle controls) was “one”, the body weight loss ([2]; 3 mg/kg i.v. on days 1 and 8) was “only apparent in the second week” and the “atrophy of the thymus” value [2, 3] was “moderate”. For the same molecule, the “number of leukocytes, especially neutrophils and lymphocytes” value [2, 3] was “reduction in the number of leukocytes”, the “sternal bone marrow histology” value [2, 3] was “minimal to slight erythroid and myeloid atrophy” and the “organ weights at the end of the recovery period” value ([2]; 3 mg/kg i.v. on days 1 and 8, day 43) was “comparable to those of control animals”. For the same molecule, the “mortalities throughout the treatment period” value ([2]; 3 mg/kg i.v. on days 1 and 8, days 1-14) was “No mortalities”, the “survival of the recovery group” value ([2]; 3 mg/kg i.v. on days 1 and 8, up to day 43) was “all animals of the recovery group survive until the end of the study; also recorded: tolerated without mortality” and the “hematological parameters at the end of the recovery period” value ([2]; 3 mg/kg recovery group, day 43) was “normal for two out of the four animals”. The “survival of the recovery group” value ([2]; 10 mg/kg i.v. on days 1 and 8) was “all animals of the recovery group have to be sacrificed prematurely on day 19; also recorded: death (or sacrifice) of all treated animals”, the “atrophy of the thymus” value [2, 4] was “marked” and the “number of leukocytes, especially neutrophils and lymphocytes” value [2, 4] was “reduction in the number of leukocytes”. The spleen histology [2, 4] was “minimal lymphoid atrophy”, the “sternal bone marrow histology” value [2, 4] was “minimal to slight myeloid hypoplasia” and the “mortalities throughout the treatment period” value ([2]; 10 mg/kg i.v. on days 1 and 8, days 1-14) was “No mortalities”. For the same molecule, the body weight loss ([2]; 10 mg/kg i.v. on days 1 and 8, first and second week) was “Body weight loss is observed for all animals”, the clinical chemistry profile ([2]; 3 and 10 mg/kg i.v. on days 1 and 8) was “Only minor changes” and the “intestinal mucosa (small and large intestine) histology” value [2, 5] was “Minimal single cell necrosis”. For the same molecule, the organ weights [2, 5] was “pronounced changes in thymus, spleen, and uterus weights” and the IC50 (A549 (Lung)) was 0.19 ± 0.12 nM.

From patent US7875601B2, “Cancer treatment with epothilones” (Novartis AG, priority 1998, dated 2011)
